The values that follow come from article PMC7178834, “Antiproliferative benzothiazoles incorporating a trimethoxyphenyl scaffold as novel colchicine site tubulin polymerisation inhibitors” (Journal of Enzyme Inhibition and Medicinal Chemistry, 2020).

SMILES strings stand for the structures. Some results are limits rather than exact numbers.

The test system of data set [1] is human cervical cancer cell line ME-180. Details: method as in PMID 24332497. The settings on record: read-out: Cytotoxicity IC50, ME-180; cited from earlier work.
Data set [2] concerns PC3 cells. The experiment in a line: MTT antiproliferative assay, PC3 cells. Format: cell-based. The settings on record: Homo sapiens, PC-3. The procedure: (§1) PC3, C42B, 22RV1, and LNCAP cell lines were cultured in an atmosphere containing 5% CO2 at 37 °C, with RPMI-1640 medium with 10% foetal bovine serum, 100 U/ml penicillin and 0.1 mg/ml streptomycin. Cells were seeded at a density of 1500 per well in 96-well plates for 72 h. Then, 20 μL MTT (thiazolyl blue tetrazolium bromide) solution was added to each well, and incubated for 4 h at 37 °C. 150 μL DMSO was added to each well to dissolve the formazan after removing the liquid, the absorbance was determined at 570 nm.
(§2) Compound 12a was further examined for possible cytotoxicity against RWPE-1 (normal human prostatic cell line). […] To evaluate its antiproliferative activity against other prostate cancer cell lines, C42B, LNCAP and PC3 cells were selected to perform MTT assay.

For data set [3], the system named is 22RV1 cells. The experiment in a line: MTT antiproliferative assay, 22RV1 cells. Format: cell-based. The settings on record: for IC50: MTT assay, exposure for 72 h. As to the method:
as §1
To discovery novel anti-prostate cancer agents and tubulin polymerisation inhibitors, we evaluated the antiproliferative activity of all benzothiazole derivatives 9a∼9k and 12a∼12d against a prostate cancer cell line 22RV1 using the 3–(4,5-dimethyl-2-thiazolyl)-2,5-diphenyl-2-H-tetrazolium bromide (MTT) assay. Based on previous references, [5]-fluorouracil (5-Fu) and was usually selected as a reference drug in the MTT assay to evaluate the antiproliferative activity of synthetic benzothiazole derivatives[26]^,[27]. Therefore, 5-Fu was used as the control drug in this work. In addition, compound 4 was also the control drug to compare the antiproliferative activity.
(In general: Tetrazolium assays rely on reduction of a dye to a coloured formazan, in cell work by metabolically active cells.)

Another data set concerns LNCAP cells. The experiment in a line: MTT antiproliferative assay, LNCAP cells. Format: cell-based. The settings on record: Homo sapiens. The procedure:
as §1, §2

For data set [4], the system named is colchicine-binding site of β-tubulin. The experiment in a line: EBI competition assay in PC3 cells. The settings on record: preincubation at 10 μM, Western blot. Format: cell-based. As to the method: 6-Well plates were seeded with PC3 cells for 24 h. Then, cells were incubated with compound 12a, colchicine or DMSO for 2 h and afterward treated with EBI ([…]) for 2 h. Then, the cells were harvested and lysed. Cell extracts were used for Western blotting analysis.
(§3) Cellular protein lysates were denatured in loading buffer at 100 °C prior to adding into SDS-PAGE. Proteins were transferred to nitrocellulose membranes, probed with indicated antibodies, and visualised by an enhanced chemiluminescence detection system. The western blotting bands were semi-quantified using Image J and adjusted for loading control.
In order to evaluate whether benzothiazole hybrid 12a directly binds to tubulin at the colchicine binding site, we carried out N,N′-ethylenebis(iodoacetamide) (EBI) competition assay in PC3 cells according to previously published references[29]^,[30]. EBI is an alkylating agent that has the property to specifically cross-link the Cys239 and the Cys354 residues of β-tubulin involved in the colchicine-binding site[31]. The occupancy of colchicine-binding site by tubulin polymerisation inhibitors could inhibit the formation of the EBI: β-tubulin adduct.
(In western blotting, separated proteins are transferred to a membrane and probed.)

The test system of the next data set is tubulin. Briefly: In vitro tubulin polymerisation assay. It counts as biochemical. The settings on record: tubulin 5.6 mg/ml in PEM buffer, read-out: Tubulin polymerisation inhibition IC50. The procedure:
Tubulin (5.6 mg/ml) was resuspended in PEM buffer (containing 80 mM PIPES, […], 1 mM EGTA, 10.2% glycerol, 0.5 mM MgCl2) and then was preincubated with compound 12a, colchicine or vehicle DMSO on ice. The reaction was monitored by a spectrophotometer in […] at 420 nm (excitation wavelength is 340 nm).
The in vitro tubulin polymerisation inhibition activity of compound 12a was evaluated because of its best antiproliferative activity results among all benzothiazole hybrids. When tubulin was incubated with the tested compound 12a, the increased tendency of the fluorescence intensity was obviously slowed down compared with the control.

Data set [5] relates to microtubule network in PC3 cells. The experiment in a line: Immunofluorescence staining of microtubules in PC3 cells. Format: cell-based. The settings on record: 48 h. As to the method: PC3 cells were seeded on the slices and incubated overnight. Then, cells were treated with different concentrations of 12a. After 48 h, slices were fixed by 4% paraformaldehyde for 15 min after washed by PBS for 3 times. 0.5% Triton-X-100 was added and shaked for 20 min. 0.1% BSA was used to block for 30 min and then removed. The slices were added β-tubulin antibody (1:100) and incubated overnight. Then slices were washed by PBST 3 times, bind with secondary antibody with FITC signal (1:500) in a dark. DAPI was used to stain for 3 min and then removed. After that, images were captured by Laser scanning confocal microscope (Nikon, Japan).
As the microtubule system played an important role in the maintenance of cell shape and basic cellular functions, an immunofluorescence staining assay was performed to study whether benzothiazole hybrid 12a could disrupt the microtubule dynamics in living cells.

The nature of data set [6]: Cytotoxicity against normal prostatic cell line RWPE-1. It counts as cell-based. The settings on record: RWPE-1 normal prostatic cells; normal human prostatic cell line. As to the method:
as §1, §2

The test system of data set [7] is apoptosis-related proteins (Bcl-2 and Cleaved-parp). The experiment in a line: Western blot of apoptosis-related proteins, 22RV1 cells. Format: cell-based. The settings on record: concentration-dependent. The procedure: as §3
(§4) Bcl-2 family proteins are key regulators of apoptosis and overexpression of the prominent pro-survival Bcl-2 family members like Bcl-2 is a common feature responsible for deregulation of apoptosis in prostate cancer cells. In order to investigate the apoptosis effects of compound 12a, the expression of apoptosis-related proteins (Bcl-2 and Cleaved-parp) were tested. As shown in the Figure 6(B), the expression level of Bcl-2 was decreased and the expression level of Cleaved-parp was increased in a concentration-dependent manner against prostate cancer (22RV1 cells and PC3 cells).

The test system of data set [8] is 22RV1 cells. The experiment in a line: DAPI staining, 22RV1 cells. The settings on record: 22RV1 cells, 1, 2 and 4 μM, 48 h. It counts as cell-based. The procedure: (§5) Cells were seeded on a 6-well plate (2 × 10^5/well) and treated with the test compound after the incubation for 24 h. Then, cells were stained by DAPI (4′,6-diamidino-2-phenylindole) in the dark for 30 min.

The subject of data set [9] is PC3 cells. The experiment in a line: DAPI staining, PC3 cells. The settings on record: PC3 cells, 1, 2 and 4 μM, 48 h. Format: cell-based. As to the method: as §5
Data set [10] deals with apoptosis-related proteins (Bcl-2 and Cleaved-parp). Briefly: Western blot of apoptosis-related proteins, PC3 cells. The settings on record: concentration-dependent. Format: cell-based. As to the method: as §3, §4
In a further data set the test system is C42B cells. Briefly: MTT antiproliferative assay, C42B cells. Format: cell-based. The procedure: as §1, §2

For the compound `CCOc1ccc2nc(N3CN(c4ccccc4)c4ccccc4C3=O)sc2c1` [Compound 3], the IC50 (usually the concentration at which inhibition is half-maximal) in [1] was 4.01 µM.
For the compound `COc1ccc(CN(C(=O)CSc2nc3ccccc3o2)c2cc(OC)c(OC)c(OC)c2)cc1` [Compound 4, reference compound], the concentration for half-maximal inhibition (IC50) in the data set on PC3 cells [2] was determined as 3.53 µM; in the data set with 22RV1 cells [3] (Homo sapiens, 22Rv1) it was 6.48 ± 0.25 µM; in the data set on LNCAP cells, 10 µM.
Compound `O=c1[nH]cc(F)c(=O)[nH]1` [Compound 5-FU, [5]-fluorouracil, reference compound] had an IC50 in the data set with 22RV1 cells [3] of 18.3 ± 1.27 µM.
For the compound `COc1cc(N(Cc2ccc(F)cc2)C(=O)CSc2nc3ccccc3s2)cc(OC)c1OC` [Compound 9a, 2-(Benzo[d]thiazol-2-ylthio)-N-(4-fluorobenzyl)-N-(3,4,5-trimethoxyphenyl)acetamide], the IC50 in the data set with 22RV1 cells [3] (Homo sapiens, 22Rv1, 72 h) stood at 16.2 ± 0.84 µM.
`COc1cc(N(Cc2cccc(Cl)c2)C(=O)CSc2nc3ccccc3s2)cc(OC)c1OC` [Compound 9b, 2-(Benzo[d]thiazol-2-ylthio)-N-(3-chlorobenzyl)-N-(3,4,5-trimethoxyphenyl)acetamide]: the “Fold activity loss when p-Br replaced with m-Cl (9d vs. 9b)” value in the data set with 22RV1 cells [3] (22RV1 cells, ratio of IC50 values) is “over 3 fold”. In addition, the IC50 with 22RV1 cells [3] (Homo sapiens, 22Rv1, 72 h) is more than 12 µM; in the data set on 22RV1 cells [3] it was 19.1 ± 1.15 µM.
On to `COc1cc(N(Cc2ccc(Cl)cc2)C(=O)CSc2nc3ccccc3s2)cc(OC)c1OC` [Compound 9c, 2-(Benzo[d]thiazol-2-ylthio)-N-(4-chlorobenzyl)-N-(3,4,5-trimethoxyphenyl)acetamide], for which the IC50 in the data set with 22RV1 cells [3] (Homo sapiens, 22Rv1, 72 h) is more than 12 µM; in the data set with 22RV1 cells [3] it was 12.2 ± 0.58 µM.
In the case of `COc1cc(N(Cc2ccc(Br)cc2)C(=O)CSc2nc3ccccc3s2)cc(OC)c1OC` [Compound 9d, 2-(Benzo[d]thiazol-2-ylthio)-N-(4-bromobenzyl)-N-(3,4,5-trimethoxyphenyl)acetamide], in the data set on 22RV1 cells [3] (Homo sapiens, 22Rv1, 72 h), the IC50 was 6.2 ± 0.71 µM.
In the data set with 22RV1 cells [3] (Homo sapiens, 22Rv1, 72 h), `COc1cc(N(Cc2ccc(C)cc2)C(=O)CSc2nc3ccccc3s2)cc(OC)c1OC` [Compound 9e, 2-(Benzo[d]thiazol-2-ylthio)-N-(4-methylbenzyl)-N-(3,4,5-trimethoxyphenyl)acetamide] came in with an IC50 of 8.25 ± 0.43 µM.
Same read-out and setting: under `COc1cc(N(Cc2ccccc2)C(=O)CSc2nc3ccccc3s2)cc(OC)c1OC` [Compound 9f, 2-(Benzo[d]thiazol-2-ylthio)-N-benzyl-N-(3,4,5-trimethoxyphenyl)acetamide] stands 9.06 ± 0.17 µM.
Same read-out and setting: under `COc1cccc(CN(C(=O)CSc2nc3ccccc3s2)c2cc(OC)c(OC)c(OC)c2)c1` [Compound 9g, 2-(Benzo[d]thiazol-2-ylthio)-N-(3-methoxybenzyl)-N-(3,4,5-trimethoxyphenyl)acetamide] stands 7.37 ± 0.56 µM.
`COc1ccc(CN(C(=O)CSc2nc3ccccc3s2)c2cc(OC)c(OC)c(OC)c2)cc1` [Compound 9h, 2-(Benzo[d]thiazol-2-ylthio)-N-(4-methoxybenzyl)-N-(3,4,5-trimethoxyphenyl)acetamide] gave an IC50 with 22RV1 cells [3] (Homo sapiens, 22Rv1, 72 h) of 5.24 µM.
As to `COc1ccc(CN(C(=O)CSc2nc3ccccc3s2)c2ccc(C)cc2)cc1` [Compound 9i, 2-(Benzo[d]thiazol-2-ylthio)-N-(4-methoxybenzyl)-N-(p-tolyl)acetamide], the IC50 in the data set with 22RV1 cells [3] (Homo sapiens, 22Rv1, 72 h) is more than 20 µM.
On the same count and under the same terms, next, `COc1ccc(CN(C(=O)CSc2nc3ccccc3s2)c2ccc(Cl)c(Cl)c2)cc1` [Compound 9j, 2-(Benzo[d]thiazol-2-ylthio)-N-(3,4-dichlorophenyl)-N-(4-methoxybenzyl)acetamide]: more than 20 µM.
As to `COc1ccc(CN(C(=O)CSc2nc3ccccc3s2)c2ccccc2)cc1` [Compound 9k, 2-(Benzo[d]thiazol-2-ylthio)-N-(4-methoxybenzyl)-N-phenylacetamide], the melting point (commonly the temperature, or range, at which the solid turns liquid) was 109 to 110 °C. The IC50 in the data set on 22RV1 cells [3] (Homo sapiens, 22Rv1, 72 h) was more than 20 µM.
With `COc1cc(N(Cc2c(C)noc2C)C(=O)CSc2nc3ccccc3s2)cc(OC)c1OC` [Compound 12a, 2-(Benzo[d]thiazol-2-ylthio)-N-((3,5-dimethylisoxazol-4-yl)methyl)-N-(3,4,5-trimethoxyphenyl)acetamide], the IC50 with PC3 cells [2] came to 2.04 µM; in the data set with 22RV1 cells [3] (Homo sapiens, 22Rv1, 72 h) it was 2.13 ± 0.24 µM; in the data set on tubulin, 2.87 µM; with LNCAP cells it was 4.31 µM; in the data set on C42B cells, 2.81 µM. Further, the “Formation of the EBI: β-tubulin adduct” value in data set [4] is “prevented the formation of the EBI: β-tubulin adduct”. The “Effect on interphase microtubules” value in data set [5] (1 μM) was “moderately depolymerised interphase microtubules”; in data set [5] (4 μM) it was “much stronger depolymerisation effects”. This compound registered an IC50 at 72 h in data set [6] of more than 20 µM. The “Expression level of Bcl-2” value in data set [7] and in [10] was “decreased” in each case. Also, the “Expression level of Cleaved-parp” value in data set [7] and in data set [10] was “increased” in each case. Besides, the “Morphological changes (DAPI staining)” value in the data set with 22RV1 cells [8] and in the data set on PC3 cells [9] was “characteristic apoptotic morphological changes were observed” each time.
In the case of `COc1cc(N(Cc2ccncc2)C(=O)CSc2nc3ccccc3s2)cc(OC)c1OC` [Compound 12b, 2-(Benzo[d]thiazol-2-ylthio)-N-(pyridin-4-ylmethyl)-N-(3,4,5-trimethoxyphenyl)acetamide], the 50% inhibitory concentration (IC50) with 22RV1 cells [3] (Homo sapiens, 22Rv1, 72 h) is 5.09 ± 0.62 µM.
In the case of `COc1cc(N(Cc2ccc(Cl)nc2)C(=O)CSc2nc3ccccc3s2)cc(OC)c1OC` [Compound 12c, 2-(Benzo[d]thiazol-2-ylthio)-N-((6-chloropyridin-3-yl)methyl)-N-(3,4,5-trimethoxyphenyl)acetamide], in the data set on 22RV1 cells [3] (Homo sapiens, 22Rv1, 72 h), the IC50 is 11.8 ± 0.91 µM.
Compound `COc1cc(N(Cc2ccc3ccccc3c2)C(=O)CSc2nc3ccccc3s2)cc(OC)c1OC` [Compound 12d, 2-(Benzo[d]thiazol-2-ylthio)-N-(naphthalen-2-ylmethyl)-N-(3,4,5-trimethoxyphenyl)acetamide] yielded an IC50 with 22RV1 cells [3] (Homo sapiens, 22Rv1, 72 h) of 6.93 ± 0.46 µM.
